Some test systems named below: OVCAR-5 ovarian; SNB-75 CNS; LOX IMVI melanoma; SF-295 CNS; RXF 393 renal; HOP-92 NSCLC; SK-MEL-2 melanoma; PC-3 prostate; SF-268 CNS; MOLT-4 leukemia.
Test in all cases: inhibition of tumour cell growth, NCI panel, 48 h

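How tested: cells in 96-well plates exposed to compound for 48 hours at five concentrations. At the GI50, growth is halved. TGI denotes the concentration required for complete inhibition of growth.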

In the case of `N#CC1C(N)=NNC12Nc1ccccc1N2` (stereo unspecified), the GI50 is greater than 100 µM in the assay with OVCAR-5 ovarian; 24.8 µM with SNB-75 CNS; 26.7 µM in the assay on LOX IMVI melanoma; 18.8 µM in the assay with SF-295 CNS; 335 nM with RXF 393 renal; 2.2 µM with HOP-92 NSCLC. Further, the GI50 in the assay with SK-MEL-2 melanoma is 15.1 µM; in the assay with PC-3 prostate it was 22.2 µM. In addition, the TGI in the assay on OVCAR-5 ovarian was greater than 100 µM; in the assay with SNB-75 CNS, greater than 100 µM; in the assay with LOX IMVI melanoma, greater than 100 µM; with SF-295 CNS it was 69.4 µM; in the assay on RXF 393 renal it was 7.27 µM; with HOP-92 NSCLC, 34.5 µM. Moreover, the TGI was 77.5 µM in the assay on SK-MEL-2 melanoma and greater than 100 µM in the assay on PC-3 prostate.

On to `Cc1ccc2c(c1)ncn2-c1ncnc2c1CC(C)c1ccccc1N2C` (stereo unspecified), for which the GI50 in the assay on SNB-75 CNS is 0.0892 µM; with LOX IMVI melanoma it was 0.124 µM; with SF-295 CNS it was 0.0486 µM; with RXF 393 renal it was 57.7 nM; in the assay on HOP-92 NSCLC it was 3.77 µM; in the assay with SK-MEL-2 melanoma, 1.13 µM. Moreover, the GI50 is 0.209 µM in the assay with SF-268 CNS, 0.0607 µM in the assay with MOLT-4 leukemia and 0.0561 µM in the assay with PC-3 prostate. The TGI came to 18.1 µM in the assay with SNB-75 CNS; 13 µM in the assay on LOX IMVI melanoma; 12.2 µM in the assay with SF-295 CNS; 16.4 µM in the assay on RXF 393 renal; 18.7 µM in the assay with HOP-92 NSCLC; 18.3 µM in the assay with SK-MEL-2 melanoma. In addition, the TGI in the assay with SF-268 CNS was found to be 15.6 µM; in the assay with MOLT-4 leukemia, 4.36 µM; in the assay on PC-3 prostate, 17.7 µM.

In the case of `O=[N+]([O-])c1nccn1CC1OC(n2ccnc2[N+](=O)[O-])C(O)C(O)C1O` (stereo unspecified), the TGI in the assay on OVCAR-5 ovarian, with SNB-75 CNS, in the assay with RXF 393 renal, with HOP-92 NSCLC, in the assay with SK-MEL-2 melanoma and with MOLT-4 leukemia was greater than 100 µM in each case. The compound further registered a TGI with PC-3 prostate greater than 100 µM.

Regarding `COc1ccc(/C=C2\CCCC3=C2NC(C)=NC3c2ccc(OC)c(OC)c2)cc1OC` (stereo unspecified), the GI50 was 71 µM with OVCAR-5 ovarian; 32 µM in the assay on SNB-75 CNS; 51.1 µM with LOX IMVI melanoma; 4020 nM in the assay on RXF 393 renal; 18.9 µM with HOP-92 NSCLC; 15.9 µM with SK-MEL-2 melanoma. Further, the GI50 was 21 µM with SF-268 CNS, 24.8 µM with MOLT-4 leukemia and 37.4 µM with PC-3 prostate. In addition, the TGI in the assay on OVCAR-5 ovarian was greater than 100 µM; with SNB-75 CNS it was greater than 100 µM; in the assay on LOX IMVI melanoma, greater than 100 µM; with RXF 393 renal, 16.3 µM; in the assay on HOP-92 NSCLC, 92.6 µM; with SK-MEL-2 melanoma, greater than 100 µM. The TGI in the assay on SF-268 CNS, with MOLT-4 leukemia and with PC-3 prostate was greater than 100 µM in each case.

`C/C1=C\CC[C@@](C)(O)[C@@H]2CC3[C@@H](OC(=O)C34CC4)[C@@H](O2)[C@H](C)CCC1` (stereo partly specified): the GI50 in the assay on OVCAR-5 ovarian was 16.1 µM; with SNB-75 CNS it was 41.9 µM; with LOX IMVI melanoma, 6.09 µM; with SF-295 CNS, 17.3 µM; in the assay on HOP-92 NSCLC, 38.9 µM; in the assay with SK-MEL-2 melanoma it was 16.2 µM. Also, the GI50 in the assay with SF-268 CNS was 19.4 µM; in the assay with MOLT-4 leukemia it was 39.2 µM; with PC-3 prostate, 20.1 µM. The TGI in the assay on OVCAR-5 ovarian is 30.2 µM; in the assay on SNB-75 CNS, greater than 100 µM; with LOX IMVI melanoma it was 25.8 µM; in the assay with SF-295 CNS it was 34.4 µM; in the assay on HOP-92 NSCLC it was greater than 100 µM; with SK-MEL-2 melanoma it was 34.4 µM. Also, the TGI in the assay on SF-268 CNS is 73.3 µM; in the assay with MOLT-4 leukemia it was greater than 100 µM; in the assay with PC-3 prostate, 44.6 µM.

As to `Cc1cc(N2CCCC2)nc(N(CCCNc2ccnc3cc(Cl)ccc23)Cc2ccc3c(c2)OCO3)n1`, the GI50 with OVCAR-5 ovarian is 2.46 µM; with SNB-75 CNS, 1.54 µM; with LOX IMVI melanoma it was 1.03 µM; with SF-295 CNS, 1.16 µM; in the assay with HOP-92 NSCLC it was 0.0237 µM; in the assay on SK-MEL-2 melanoma, 1.84 µM. Further, the GI50 in the assay with SF-268 CNS was 2.89 µM; in the assay on MOLT-4 leukemia it was 1.3 µM; with PC-3 prostate, 1.47 µM. Moreover, the TGI in the assay with OVCAR-5 ovarian turned out to be 8.92 µM; in the assay with SNB-75 CNS, 4.33 µM; with LOX IMVI melanoma, 2.35 µM; in the assay on SF-295 CNS it was 2.89 µM; in the assay with HOP-92 NSCLC, 2.96 µM; in the assay on SK-MEL-2 melanoma, 4 µM. Further, the TGI was found to be 16.6 µM in the assay with SF-268 CNS, 4.64 µM with MOLT-4 leukemia and 12 µM in the assay on PC-3 prostate.

Regarding `COc1ccc(-c2ccc(/C=N/n3c(COc4ccc(Cl)cc4)n[nH]c3=S)o2)c([N+](=O)[O-])c1`, the GI50 in the assay with OVCAR-5 ovarian was 24.7 µM; with SNB-75 CNS it was 37.4 µM; in the assay with RXF 393 renal it was 12700 nM; in the assay on HOP-92 NSCLC, 15.1 µM; with SK-MEL-2 melanoma, 41.9 µM; with SF-268 CNS, 16.6 µM. For the same compound, the GI50 in the assay with MOLT-4 leukemia is 16.5 µM; in the assay with PC-3 prostate, 12.2 µM. The TGI with OVCAR-5 ovarian was 51.4 µM; in the assay on SNB-75 CNS, greater than 100 µM; with RXF 393 renal, 32.3 µM; in the assay on HOP-92 NSCLC, 43.8 µM; in the assay on SK-MEL-2 melanoma it was greater than 100 µM; in the assay with SF-268 CNS, 42.6 µM. For the same compound, the figures for the TGI in the assay on MOLT-4 leukemia and with PC-3 prostate were 75.4 µM and 35.9 µM, respectively.

Source of the values: PubChem BioAssay (NCI).
